The source of these data is patent US5550110A, “Endothelin Antagonists II” (Warner-Lambert Company, priority 1994, dated 1996).

Data set [1] concerns acute hypoxia induced pulmonary hypertension. As to conditions: in vivo; cited from earlier work.
The subject of data set [2] is ET-1 induced vasoconstriction. As to conditions: i.v.; cited from earlier work.
In the next data set the test system is endotoxic shock. As to conditions: mouse endotoxic shock; cited from earlier work.
The next data set concerns acute CsA toxicity. The conditions noted are these: rat model; cited from earlier work.
In data set [3] the test system is ischemic acute renal failure. As to conditions: i.v., cited from earlier work.
Data set [4] deals with blood pressure. The conditions noted are these: intravenous infusion, stroke prone spontaneous hypertensive rats; cited from earlier work.
Data set [5] has as its system ET-1 induced pressor response. The conditions noted are these: conscious rats; cited from earlier work.
The test system of data set [6] is ET-1 induced bronchoconstriction and tracheal smooth muscle contraction. The conditions noted are these: allergic sheep; cited from earlier work.
Data set [7] has as its system renal vascular resistance. As to conditions: i.v.; cited from earlier work.
Data set [8] concerns the target T1, endothelin receptor (ETB), rat cerebellar membranes (Rattus norvegicus, UniProt P21451).
T1 construct: thaw one aliquot of frozen rat cerebellar membranes (2 mg protein in 0.5 mL); from tissue; host or cells: rat cerebellum (membranes)
T1 sequence (P21451 27-442): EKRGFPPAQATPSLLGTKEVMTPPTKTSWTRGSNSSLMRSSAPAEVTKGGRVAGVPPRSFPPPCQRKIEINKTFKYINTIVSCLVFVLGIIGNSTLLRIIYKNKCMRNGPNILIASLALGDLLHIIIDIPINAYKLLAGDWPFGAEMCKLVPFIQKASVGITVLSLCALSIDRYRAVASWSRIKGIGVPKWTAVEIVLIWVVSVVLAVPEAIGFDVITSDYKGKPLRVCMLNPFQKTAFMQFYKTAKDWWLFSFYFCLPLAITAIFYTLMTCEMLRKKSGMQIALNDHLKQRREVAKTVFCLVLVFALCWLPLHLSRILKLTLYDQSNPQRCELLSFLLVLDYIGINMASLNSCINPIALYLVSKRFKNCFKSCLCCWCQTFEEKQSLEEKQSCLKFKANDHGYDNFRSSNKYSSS
The data set can be described thus: Endothelin Receptor Binding Assay-B (ERBA-B), [125I]-ET-1 binding in rat cerebellar membranes. The conditions noted are these: [125I]-ET-1 25 pM, read-out: ERRA-B IC50. On the procedure:
Endothelin Receptor Binding Assay-B (ERBA-B) [^125 I]-ET-1 Binding in Rat Cerebellar Membranes
The tissue is made up of 20 mM tris(hydroxymethyl)aminomethane hydrochloride (Trizma) buffer, 2 mM ethylenediaminetetra acetate, 100 μM phenylmethylsulfonyl fluoride.
First, thaw one aliquot of frozen rat cerebellar membranes (2 mg protein in 0.5 mL). Next, add 0.5 mL membrane aliquot to 4.5 mL cold tissue buffer, polytron at 7,500 revolutions per minute for 10 seconds. Finally, dilute tissue suspension 1/100 (0.1 mL suspension+9.9 mL tissue buffer), polytron again, and place ice.
Medium 199 with Hank's salts plus 25 mM Hepes+1 mg/mL bovine serum albumin.
Amersham [^125 I]-ET-1 (aliquots of 2×10^6 cpm per […] aliquot of [^125 I]-ET-1 with 5.2 mL dilution buffer, place on ice until use (final concentration will be 20,000 cpm per tube, or 25 pM).
Add 50 μL each of cold [^125 ]-ET-1 and competing ligand to tubes on ice. Mix in 150 μL of tissue to each tube, vortex briefly, then tap to force all liquids to bottom (total assay volume=250 μL). Then place the tubes in a 37° C. water bath for 2 hours.
Add 2.5 mL cold wash buffer (50 mM Trizma buffer) to each tube, filter, and then wash tube with additional 2.5 mL wash buffer and add to filter. Finally, wash filters with an additional 2.5 mL of cold wash buffer.
Count filters for radioactivity in gamma counter.

For data set [9], the system named is endothelin receptor (ETA), rabbit renal artery vascular smooth muscle cells. The data set can be described thus: Endothelin Receptor Binding Assay-A (ERBA-A), intact cell binding of [125I]-ET-1. As to conditions: [125I]-ET-1 25 pM. As to the method: The compounds of Formula I are valuable antagonists of endothelin. […] Thus, the compounds of Formula I were tested for their ability to inhibit [^125 I]-ET-1([^125 I]-Endothelin-1) binding in a receptor assay according to the following procedures: Endothelin Receptor Binding Assay-A (ERBA-A) Intact Cell Binding of [^125 I]-ET-1 The cells used were rabbit renal artery vascular smooth muscle cells grown in a 48-well dish (1 cm^2) (confluent cells). The assay buffer was a medium 199 containing Hanks salts and 25 mM Hepes buffer (Gibco 380-2350AJ), supplemented with penicillin/streptomycin/fungizone (0.5%) and bovine serum albumin (1 mg/mL). Amersham radioiodinated endothelin-1 [^125 I]-ET-1 was used at final concentration of 20,000 cpm/0.25 mL (25 pM). […] Second, remove the assay buffers, place the dish on ice, and add 150 μL of cold assay buffer described above to each well. Third, add […] each of cold [^125 I]-ET-1 and competing ligand to the solution (at the same time if possible). Next, place dish in a 37° C. water bath for about 2 hours and gently agitate the dish every 15 minutes. Discard the radioactive incubation mixture in the sink and wash wells 3 times with 1 mL of cold phosphate buffered saline. Last, add […] of 0.25 molar sodium hydroxide, agitate for 1 hour on a rotator, and then transfer the sodium hydroxide extract to gamma counting tubes and count the radioactivity.

The subject of data set [10] is CaCO-2 cells (human colon adenocarcinoma cell line). Format: in vitro ADME. On the procedure:
For experiments, the cells were counted, then diluted to 2.5×10^5 cells/mL for planting (400 μL per well) onto Snapwell culture membranes with 2.5 mL media in the lower chamber. Media in the […] was changed every 2 to 3 days. Cells used for this series of experiments were between passage 38 and 91. 2-[N-Morpholino]ethanesulfonic acid (MES)+25 mM glucose was used as incubation buffer for all the experiments and all incubation solutions were prepared to an osmotic pressure of 280 to 300 milliosmoles. The concentration of the endothelin antagonist being studied (for all experiments) was 100 μM and another endothelin antagonist with similar HPLC characteristics (retention time 2-3 minutes from the ET antagonist being studied, and similar chemical characteristics) was used at a concentration of 25 μM as an internal standard to compensate for any injection error. Prior to the start of the experiment, the transepithelial electrical resistance (TEER) was measured for each Snapwell (in media) at three points of the membrane. […] The membranes were washed by swirling in 0.9% normal saline and mounted in the pretreated diffusion chambers [0.1 mg/mL human serum albumin for 1 to 2 hours at 37° C. with O2 bubbling followed by air drying at 37° C. overnight, then with 4.5 to 5.0 mL dosing solution (MES+glucose+^14 C-PEG-4000 (5000 dpm/50 μL)+drug) for 5 minutes and 4.5 to 5.0 mL MES+glucose rinse just before the experiment.] The apical (donor) side was filled with 4.5 to 5.0 mL dosing solution, the basolateral (receiver) side with MES+glucose. Samples were removed from the donor and receiver compartments over the course of the experiment and analyzed for ^14 C-PEG 4000 (cell membrane integrity) and endothelin content.

In data set [11] the test system is blood pressure. As to conditions: orally administered; cited from earlier work.
Data set [12] relates to renal vasoconstriction after renal ischemia. As to conditions: anesthetized rats; cited from earlier work.
Data set [13] concerns cerebral vasoconstriction after subarachnoid hemorrhage. The conditions noted are these: rats; cited from earlier work.
The subject of data set [14] is vasoconstriction after subarachnoid hemorrhage. The conditions noted are these: cited from earlier work.
Another data set has as its system ET receptor. As to conditions: cited from earlier work.
The next data set concerns glomerular injury. As to conditions: intraperitoneal, rats; cited from earlier work.
For data set [15], the system named is vasoconstriction of the basilar artery. As to conditions: intracisternal, canine subarachnoid hemorrhage model; cited from earlier work.
In a further data set the test system is ET-1 induced arrhythmia. As to conditions: rats; cited from earlier work.

Ends that are not written are not given here. Peptide text beside a SMILES is read from it.

For `CC(C)C[C@@H]1NC(=O)[C@@H](C(C)C)NC(=O)[C@@H]2CCCN2C(=O)[C@@H](CC(=O)O)NC(=O)[C@@H](Cc2c[nH]c3ccccc23)NC1=O` [BQ-123] (HELM PEPTIDE1{L.[dW].[dD].P.[dV]}$PEPTIDE1,PEPTIDE1,1:R1-5:R2$$$V2.0), the “prevention of acute hypoxia induced pulmonary hypertension” value in data set [1] is on record as “effective in the prevention of acute hypoxia induced pulmonary hypertension”. The “ET-1 induced vasoconstriction in rabbit retinal arteries” value in [2] is on record as “blocked”. In the data set with endotoxic shock, the survival rate entry is “significantly increased the survival rate”. Moreover, the “acute CsA toxicity” value in the data set on acute CsA toxicity is “suppressed”. In addition, the “mitochondrial [Ca2+] accumulation” value in [3] (early phase of ischemic acute renal failure in rats) was “prevents the mitochondrial [Ca^2+ ] accumulation”. For the same compound, the “post-ischemic degeneration of proximal tubular cells” value in data set [3] (rats) was “protects proximal tubular cells from post-ischemic degeneration”. Further, in the data set with blood pressure [4], the blood pressure entry was “decreased blood pressure significantly”. In data set [5], the “ET-1 induced pressor response” value is listed as “effective in antagonizing the ET-1 induced pressor response”. In addition, the “ET-1 induced bronchoconstriction and tracheal smooth muscle contraction” value in [6] is “block ET-1 induced bronchoconstriction and tracheal smooth muscle contraction”. Besides, the “ET-1 induced renal vascular resistance in rats” value in data set [7] is “blocked”.
`CC[C@H](C)[C@H](NC(=O)[C@@H](NC(=O)[C@@H](CC(=O)O)NC(=O)[C@H](CC(C)C)NC(=O)[C@H](NC(C)=O)C1c2ccccc2CCc2ccccc21)[C@@H](C)CC)C(=O)N[C@@H](Cc1c[nH]c2ccccc12)C(=O)O` [Example 16, Ac-D-Bhg-Leu-D-Asp-Ile-Ile-Trp] (HELM PEPTIDE1{[ac].[O=C([C@H](N[*:1])C1c2ccccc2CCc2ccccc21)[*:2]].L.[dD].I.I.W}$$$$V2.0): the half-maximal inhibitory concentration (IC50) in [8] is 400 nM; in [9], 140 nM. In addition, the “absorption in the gut suggested by CaCO-2 values” in data set [10] is listed as 5-10%.
As for `COc1cccc(Oc2c(NS(=O)(=O)c3ccc(C(C)(C)C)cc3)ncnc2OCCO)c1` [Ro 46-2005], the antihypertensive effect entry with blood pressure [11] was “marked antihypertensive effect with a reasonably long duration”. In addition, the “renal vasoconstriction after renal ischemia” value in data set [12] is “protective effect”. In data set [13], the “cerebral vasoconstriction after subarachnoid hemorrhage” value is reported as “dramatically reduced cerebral vasoconstriction”.
On to `COc1ccccc1Oc1c(NS(=O)(=O)c2ccc(C(C)(C)C)cc2)nc(-c2ncccn2)nc1OCCO` [Ro 47-0203], for which, in [14] (inferred from the rabbit subarachnoid hemorrhage model), the “blood brain barrier passage” value is reported as “crosses the blood brain barrier”. Besides, the reversal of vasoconstriction entry in [14] (rabbit subarachnoid hemorrhage model) is “effective in a rabbit subarachnoid hemorrhage model in reversing vasoconstriction”.
Regarding “ET[1-20]: ET-1 lacking the C-terminal amino acid Trp-21 (CSCSSLMDKECVYFCHLDII; ends and bridges not checked; cysteine pairing not given here; UniProt P05305 53-72, looked up, fragment)”, the “functional activity relative to ET-1” value in the data set with ET receptor was “approximately 1000 fold less”.
For FR 139317, the “permeability to proteins, glomerular injury, renal function” value with glomerular injury is “reduced abnormal permeability to proteins and limited glomerular injury and prevented renal function deterioration”. Also, in data set [15], the “vasoconstriction of the basilar artery” value is recorded as “significantly reduced the vasoconstriction of the basilar artery”. Further, the ET-1 induced arrhythmia result with ET-1 induced arrhythmia is “suppressed”.

One may read the IC50 as the point on the concentration scale where inhibition reaches its midpoint.
